Measurements published in PMC4295010 (Journal of the American Chemical Society, 2014).
Where a SMILES comes first, the peptide text is derived from it. [ ]: non-standard residue; d: D form.

Columns and labels:
[1] = aggregation of 1 by UV absorption change of the supernatant; format: physicochemical; conditions: over time, Figure S3, varying [Van]0
[2] = tested on: HeLa cells; assay: MTT cell viability, HeLa; format: cell-based
[3] = isothermal titration calorimetry; format: binding; conditions: ITC of 2 with Van, 25 °C, Figure S6
[4] = tested on: HeLa cells; assay: NBD-Van staining of aggregates on HeLa cells, confocal; format: cell-based; conditions: NBD-Van (6 μM) alone

With `CN[C@H](CC(C)C)C(=O)N[C@H]1C(=O)N[C@@H](CC(N)=O)C(=O)N[C@H]2C(=O)N[C@H]3C(=O)N[C@H](C(=O)N[C@H](C(=O)O)c4cc(O)cc(O)c4-c4cc3ccc4O)[C@H](O)c3ccc(c(Cl)c3)Oc3cc2cc(c3O[C@@H]2O[C@H](CO)[C@@H](O)[C@H](O)[C@H]2O[C@H]2C[C@](C)(N)[C@H](O)[C@H](C)O2)Oc2ccc(cc2Cl)[C@H]1O` [Van, vancomycin, reference compound] the “amount of Van in the aggregates” value [1] was “decreases with time” and the cytotoxicity ([2]; alone, concentration as high as 500 μM, MTT) was “innocuous”.

For `CC(=O)N[C@@H](CCCCN)C(=O)NCC(=O)NCC(=O)N[C@H](C)C(=O)N[C@H](C)C(=O)O` [compound 2] (Ac-KGG[dA][dA]-OH), the Kd [3] was 135 µM, the binding ratio n [3] was 1 and the inhibition of proliferation ([2]; with addition of Van at 500 μM) was “scarcely inhibits”. The inhibition of proliferation ([2]; without addition of Van, at 500 μM) was “scarcely inhibits”.

In the case of “7-nitrobenzofurazan-derivatized vancomycin [NBD-Van]”, the “fluorescent aggregates with HeLa cells” value [4] is reported as “few aggregates on the cells”.
